Like-named read-outs stand apart in the source and are kept apart here.
Legend:
[1] = test system: Salmonella typhimurium 1535/pSK1002
[2] = test system: Salmonella typhimurium 1535/pSK1002; remark: listed apart in the source
[3] = test system: Salmonella tester strains; details: cited from earlier work
[4] = test system: Escherichia coli PQ37; details: cited from earlier work
[5] = test system: Salmonella typhimurium 1535/pSK1002; remark: listed apart in the source
[6] = test system: Escherichia coli; details: cited from earlier work
[7] = test system: 1535, 1538 and 98 strains; details: cited from earlier work

Row | Compound | experiments with IF values above two [2] | genotoxicity result in the SOS/umu test [5] | genotoxicity result in the SOS/umu test [1] | genotoxicity result in the SOS/umu test [2] | mutagenic activity in the Ames test [3] | also measured
1 | COc1cc2c(c3oc4cccc(O)c4c(=O)c13)[C@@H]1C=CO[C@@H]1O2 [STER, sterigmatocystin] | one out of four experiments |  |  |  |  | induction factor (IF) [1]: greater than two
2 | CCCC[C@@H](C)[C@@H](OC(=O)C[C@@H](CC(=O)O)C(=O)O)[C@H](C[C@@H](C)C[C@H](O)CCCC[C@@H](O)C[C@H](O)[C@H](C)N)OC(=O)C[C@@H](CC(=O)O)C(=O)O [FB1, fumonisin B1] |  | negative (key: IF values above or equal to two were considered as positive when the bacterial survival is above 80%; IF values below 1.5 were considered negative; IF among 2 and 1.5 were considered equivocal) | negative (key: IF values above or equal to two were considered as positive when the bacterial survival is above 80%; IF values below 1.5 were considered negative; IF among 2 and 1.5 were considered equivocal) | negative (key: IF values above or equal to two were considered as positive when the bacterial survival is above 80%; IF values below 1.5 were considered negative; IF among 2 and 1.5 were considered equivocal) |  | mutagenic potential in the Ames test [3]: negative; genotoxicity in the SOS chromotest [4]: negative; IF value reached [2]: 1.99
3 | CC(=O)OC[C@]12[C@H](O)C(=O)C(C)=C[C@H]1O[C@@H]1[C@H](O)C[C@@]2(C)[C@]12CO2 [15ADON, 15-acetyldeoxynivalenol] | two out of four experiments |  |  |  |  | 
4 | Nc1ccc2cc3ccccc3cc2c1 [2AA, 2-aminoanthracene, reference compound] |  |  |  |  |  | experiments in which the compound was genotoxic [1]: eight out of eight experiments; induction factor (IF) reached ([1]; Salmonella typhimurium): around 4
5 | CC(=O)O[C@@H]1C[C@]2(C)[C@@]3(CO)[C@H](O)C(=O)C(C)=C[C@H]3O[C@H]1[C@@]21CO1 [3ADON, 3-acetyldeoxynivalenol] | three out of four experiments |  |  |  | mutagenic activity was not found | 
6 | CC(=O)OC[C@]12C[C@H](OC(=O)CC(C)C)C(C)=C[C@H]1O[C@@H]1[C@H](O)[C@@H](OC(C)=O)[C@@]2(C)[C@]12CO2 [T-2, T-2 toxin] | three out of four experiments |  |  |  | mutagenic activity was not found | 
7 | aflatoxin B1 [AFB1] |  |  |  |  |  | mutagenicity with metabolic activation relative to without bioactivation [3]: 1000 times
8 | CC1=C[C@H]2O[C@@H]3[C@H](O)C[C@](C)([C@@]2(CO)[C@H](O)C1=O)[C@]31CO1 [DON, deoxynivalenol] |  | negative (key: IF values above or equal to two were considered as positive when the bacterial survival is above 80%; IF values below 1.5 were considered negative; IF among 2 and 1.5 were considered equivocal) | negative (key: IF values above or equal to two were considered as positive when the bacterial survival is above 80%; IF values below 1.5 were considered negative; IF among 2 and 1.5 were considered equivocal) | negative (key: IF values above or equal to two were considered as positive when the bacterial survival is above 80%; IF values below 1.5 were considered negative; IF among 2 and 1.5 were considered equivocal) | mutagenic activity was not found | genotoxicity in the SOS chromotest [4]: negative; highest IF value obtained ([2]; Salmonella typhimurium): 1.94
9 | C[C@H]1CCCC(=O)CCC/C=C/c2cc(O)cc(O)c2C(=O)O1 [ZEA, zearalenone] |  | negative (key: IF values above or equal to two were considered as positive when the bacterial survival is above 80%; IF values below 1.5 were considered negative; IF among 2 and 1.5 were considered equivocal) | negative (key: IF values above or equal to two were considered as positive when the bacterial survival is above 80%; IF values below 1.5 were considered negative; IF among 2 and 1.5 were considered equivocal) | negative (key: IF values above or equal to two were considered as positive when the bacterial survival is above 80%; IF values below 1.5 were considered negative; IF among 2 and 1.5 were considered equivocal) |  | genotoxic concentration (induction of SOS repair) [6]: 1.5 mM; IC50 ([6]; read-out: IC50 (toxicity)): 1.45 mM; result in the Ames test [3]: negative
10 | CC(=O)OC[C@]12C[C@H](OC(=O)CC(C)C)C(C)=C[C@H]1O[C@@H]1[C@H](O)[C@@H](O)[C@@]2(C)[C@]12CO2 [HT-2, HT-2 toxin] | two out of four experiments |  |  |  |  | 
11 | C[C@@H]1Cc2c(Cl)cc(C(=O)N[C@@H](Cc3ccccc3)C(=O)O)c(O)c2C(=O)O1 [OTA, ochratoxin A] |  | negative (key: IF values above or equal to two were considered as positive when the bacterial survival is above 80%; IF values below 1.5 were considered negative; IF among 2 and 1.5 were considered equivocal) | negative (key: IF values above or equal to two were considered as positive when the bacterial survival is above 80%; IF values below 1.5 were considered negative; IF among 2 and 1.5 were considered equivocal) | negative (key: IF values above or equal to two were considered as positive when the bacterial survival is above 80%; IF values below 1.5 were considered negative; IF among 2 and 1.5 were considered equivocal) |  | mutagenicity in the Ames test [7]: mutagenic; mutagenic response in the Ames test [3]: negative; mutagenicity with Salmonella tester strains [3]: consistently negative; SOS repair activity in SOS chromotest [4]: induced SOS repair activity; response in SOS chromotest [4]: weak response
12 | CC(=O)O[C@@H]1[C@@H](O)[C@H]2O[C@@H]3C=C(C)C(=O)[C@@H](O)[C@]3(CO)[C@]1(C)[C@]21CO1 [F-X, fusarenon-X] |  | negative (key: IF values above or equal to two were considered as positive when the bacterial survival is above 80%; IF values below 1.5 were considered negative; IF among 2 and 1.5 were considered equivocal) | negative (key: IF values above or equal to two were considered as positive when the bacterial survival is above 80%; IF values below 1.5 were considered negative; IF among 2 and 1.5 were considered equivocal) | negative (key: IF values above or equal to two were considered as positive when the bacterial survival is above 80%; IF values below 1.5 were considered negative; IF among 2 and 1.5 were considered equivocal) | mutagenic activity was not found | highest IF value obtained [2]: 1.88
